Experiments:
[1] = 12-week once-daily oral treatment of treatment naive type II diabetes mellitus patients (glucosuria, body weight, BMI); assay type: in vivo, human; details: type II diabetic patients, each dose group, 12 weeks
Procedure: Treatment naive type II diabetes mellitus patients, n=389, with inadequate blood glycemic control and low mean glucosuria at baseline were given once-daily oral treatments with dapagliflozin (2.5, 5, 10, 20, or 50 mgs), metformin XR® (750 mg titrated to 1500 mgs), or placebo over 12-weeks.

[2] = Chronic weight loss study in diet-induced obese (DIO) rats; assay type: in vivo, rat
Procedure: DIO rats were sorted into treatment groups based on body weight, total kilocalories consumed, and body composition (via echo MRI). […] To assess the importance of compensatory over-eating in drug-treated animals, a subgroup of rats that received 5 mg/kg of dapagliflozin was restricted to the food intake of the placebo group. Body weight and the weight of both diets were determined daily. Respiratory quotient data were obtained on days 2 and 15 of the study, echo MRI was obtained on day 22, and blood was collected for a fasting clinical chemistry tests on day 27.
Percent weight changes were calculated as […].
The weight loss study with Compound IIIA (0.1, 0.3, 1, and 3 mg/kg) was performed using the same methods as the Dapagliflozin study.

[3] = Procedure: Patients with type 2 diabetes were treated with placebo, 5 mg dapagliflozin propylene glycol, 25 mg dapagliflozin propylene glycol, or 100 mg dapagliflozin propylene glycol.

Row | Structure (SMILES) | proportion of patients achieving a 5% weight reduction versus placebo [1] | weight loss when compound-induced overeating was prevented (pair fed to vehicle group) ([2]; DIO rats, 5 mg/kg subgroup restricted to food intake of placebo group (FIG. 4)) | weight loss versus vehicle ([2]; DIO rats, oral 0.5, 1 and 5 mpk daily over 25 days, p<0.05 (FIG. 4)) | glucosuric effects: loss of calories in the urine (glucose excretion/day) ([3]; healthy subjects, single doses 5, 20, 50 or 100 mg, indirect comparison versus GSK 869,682 (FIG. 1)) | 24-hour urine glucose excretion compared to placebo ([3]; subjects with type 2 diabetes, 5 mg, 25 mg and 100 mg, 14-day study (FIG. 2)) | weight loss ([2]; DIO rats, 0.1, 0.3, 1 and 3 mg/kg daily over 25 days (FIG. 5))
1 | CCOc1ccc(Cc2cc([C@@H]3O[C@H](CO)[C@@H](O)[C@H](O)[C@H]3O)ccc2Cl)cc1 [Dapagliflozin-PGS, dapagliflozin propylene glycol hydrate] | higher proportion | weight loss was greater | significant weight loss | significant loss of calories in the urine | significantly higher urine glucose excretion | 
2 | CCc1ccc(Cc2cc([C@@H]3O[C@H](CO)[C@@H](O)[C@H](O)[C@H]3O)ccc2Cl)cc1 [Compound IIIA, (2S,3R,4R,5S,6R)-2-(4-chloro-3-(4-ethylbenzyl)phenyl)-6-(hydroxymethyl)tetrahydro-2H-pyran-3,4,5-triol] |  |  |  |  |  | significant weight loss in diet-induced obese rats in a dose proportional manner

Source: patent publication US8883743B2, “Methods for treating obesity employing an SGLT2 inhibitor” (AstraZeneca AB, priority 2007, dated 2014)
